Laboratory results from PubChem BioAssay (NCI).
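Exposure lasted 48 hours, with cells grown in 96-well plates and compounds tested at five concentrations. Abbreviation: GI50, concentration required for 50% inhibition of growth. TGI is the concentration that stops growth completely.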

Key:
Assay in all cases: NCI anticancer screen, dose series, 48 h
786-0 renal = system: 786-0 renal
A498 renal = system: A498 renal
A549 NSCLC = system: A549 NSCLC
ACHN renal = system: ACHN renal
BT-549 breast = system: BT-549 breast
CAKI-1 renal = system: CAKI-1 renal
CCRF-CEM leukemia = system: CCRF-CEM leukemia
COLO 205 colon = system: COLO 205 colon
DU-145 prostate = system: DU-145 prostate
EKVX NSCLC = system: EKVX NSCLC
HCC-2998 colon = system: HCC-2998 colon
HCT-116 colon = system: HCT-116 colon
HCT-15 colon = system: HCT-15 colon
HL-60(TB) leukemia = system: HL-60(TB) leukemia
HOP-62 NSCLC = system: HOP-62 NSCLC
HOP-92 NSCLC = system: HOP-92 NSCLC
HS 578T breast = system: HS 578T breast
HT29 colon = system: HT29 colon
IGROV1 ovarian = system: IGROV1 ovarian
K-562 leukemia = system: K-562 leukemia
KM12 colon = system: KM12 colon
LOX IMVI melanoma = system: LOX IMVI melanoma
M14 melanoma = system: M14 melanoma
MCF7 breast = system: MCF7 breast
MDA-MB-231 breast = system: MDA-MB-231 breast
MDA-MB-435 = system: MDA-MB-435
NCI-H226 lung = system: NCI-H226 lung
NCI-H23 lung = system: NCI-H23 lung
NCI-H460 lung = system: NCI-H460 lung
NCI-H522 lung = system: NCI-H522 lung
NCI/ADR-RES ovarian = system: NCI/ADR-RES ovarian
OVCAR-3 ovarian = system: OVCAR-3 ovarian
OVCAR-5 ovarian = system: OVCAR-5 ovarian
OVCAR-8 ovarian = system: OVCAR-8 ovarian
PC-3 prostate = system: PC-3 prostate
RPMI-8226 leukemia = system: RPMI-8226 leukemia
RXF 393 renal = system: RXF 393 renal
SF-268 CNS = system: SF-268 CNS
SF-295 CNS = system: SF-295 CNS
SF-539 CNS = system: SF-539 CNS
SK-MEL-2 melanoma = system: SK-MEL-2 melanoma
SK-MEL-28 melanoma = system: SK-MEL-28 melanoma
SK-MEL-5 melanoma = system: SK-MEL-5 melanoma
SK-OV-3 ovarian = system: SK-OV-3 ovarian
SN12C renal = system: SN12C renal
SNB-19 CNS = system: SNB-19 CNS
SNB-75 CNS = system: SNB-75 CNS
SW-620 colon = system: SW-620 colon
T-47D breast = system: T-47D breast
TK-10 renal = system: TK-10 renal
U251 CNS = system: U251 CNS
UACC-257 melanoma = system: UACC-257 melanoma
UACC-62 melanoma = system: UACC-62 melanoma
UO-31 renal = system: UO-31 renal

## CC1=C(C(=O)Nc2ccc(F)c(Cl)c2)C(c2cccc(O)c2)NC(=O)N1 (stereo not drawn)
786-0 renal
  GI50: > 100 µM
  TGI: > 100 µM
A498 renal
  GI50: 5.04 µM
  TGI: > 100 µM
A549 NSCLC
  GI50: > 100 µM
  TGI: > 100 µM
ACHN renal
  GI50: > 100 µM
  TGI: > 100 µM
BT-549 breast
  GI50: 67 µM
  TGI: > 100 µM
CAKI-1 renal
  GI50: > 100 µM
  TGI: > 100 µM
CCRF-CEM leukemia
  GI50: 79.3 µM
  TGI: > 100 µM
COLO 205 colon
  GI50: > 100 µM
  TGI: > 100 µM
DU-145 prostate
  GI50: > 100 µM
  TGI: > 100 µM
EKVX NSCLC
  GI50: 78.1 µM
  TGI: > 100 µM
HCC-2998 colon
  GI50: > 100 µM
  TGI: > 100 µM
HCT-116 colon
  GI50: 70.7 µM
  TGI: > 100 µM
HCT-15 colon
  GI50: > 100 µM
  TGI: > 100 µM
HL-60(TB) leukemia
  GI50: 6.81 µM
  TGI: > 100 µM
HOP-62 NSCLC
  GI50: > 100 µM
  TGI: > 100 µM
HOP-92 NSCLC
  GI50: 47.5 µM
  TGI: > 100 µM
HS 578T breast
  GI50: 26.9 µM
  TGI: > 100 µM
HT29 colon
  GI50: 81.6 µM
  TGI: > 100 µM
IGROV1 ovarian
  GI50: 36.1 µM
  TGI: > 100 µM
K-562 leukemia
  GI50: 73.5 µM
  TGI: > 100 µM
KM12 colon
  GI50: 61.4 µM
  TGI: > 100 µM
LOX IMVI melanoma
  GI50: > 100 µM
  TGI: > 100 µM
M14 melanoma
  GI50: 71.4 µM
  TGI: > 100 µM
MCF7 breast
  GI50: 58.8 µM
  TGI: > 100 µM
MDA-MB-231 breast
  GI50: 46.2 µM
  TGI: > 100 µM
MDA-MB-435
  GI50: 59.7 µM
  TGI: > 100 µM
NCI-H226 lung
  GI50: 85.9 µM
  TGI: > 100 µM
NCI-H23 lung
  GI50: > 100 µM
  TGI: > 100 µM
NCI-H460 lung
  GI50: > 100 µM
  TGI: > 100 µM
NCI-H522 lung
  GI50: 49 µM
  TGI: > 100 µM
NCI/ADR-RES ovarian
  GI50: > 100 µM
  TGI: > 100 µM
OVCAR-3 ovarian
  GI50: 71.8 µM
  TGI: > 100 µM
OVCAR-5 ovarian
  GI50: > 100 µM
  TGI: > 100 µM
OVCAR-8 ovarian
  GI50: 62.7 µM
  TGI: > 100 µM
PC-3 prostate
  GI50: 63.9 µM
  TGI: > 100 µM
RPMI-8226 leukemia
  GI50: 55.1 µM
  TGI: > 100 µM
RXF 393 renal
  GI50: > 100 µM
  TGI: > 100 µM
SF-268 CNS
  GI50: 98 µM
  TGI: > 100 µM
SF-295 CNS
  GI50: > 100 µM
  TGI: > 100 µM
SF-539 CNS
  GI50: > 100 µM
  TGI: > 100 µM
SK-MEL-2 melanoma
  GI50: 29.5 µM
  TGI: > 100 µM
SK-MEL-28 melanoma
  GI50: 58.9 µM
  TGI: > 100 µM
SK-MEL-5 melanoma
  GI50: 45.1 µM
  TGI: > 100 µM
SK-OV-3 ovarian
  GI50: > 100 µM
  TGI: > 100 µM
SN12C renal
  GI50: > 100 µM
  TGI: > 100 µM
SNB-19 CNS
  GI50: > 100 µM
  TGI: > 100 µM
SNB-75 CNS
  GI50: 17.8 µM
  TGI: 68.3 µM
SW-620 colon
  GI50: > 100 µM
  TGI: > 100 µM
T-47D breast
  GI50: > 100 µM
  TGI: > 100 µM
TK-10 renal
  GI50: > 100 µM
  TGI: > 100 µM
U251 CNS
  GI50: > 100 µM
  TGI: > 100 µM
UACC-257 melanoma
  GI50: 54.3 µM
  TGI: > 100 µM
UACC-62 melanoma
  GI50: 48.7 µM
  TGI: > 100 µM
UO-31 renal
  GI50: 71.4 µM
  TGI: > 100 µM
